Where “and” joins values, the source holds several entries; their conditions need not be identical. Identical values can stand only once.
Key:
[1] = test system: patients with early RA; test: AVERT phase 3b randomized active-controlled trial: signs and symptoms (DAS-defined remission, other remission and ACR measures); type: in vivo, human
Experimental: Patients receiving oral corticosteroids were required to be on a stable dose (≤10 mg/day for ≥4 weeks) at initiation and to maintain that dose until Month 12.
All patients received concomitant folic acid therapy.
Patients with DAS28 (CRP)≥3.2 were discontinued.
For the purpose of this study, DAS-defined remission was DAS28 (CRP)<2.6.
Exploratory endpoints included: Other remission rates (Simplified Disease Activity Index [SDAI; ≤3.3], Clinical Disease Activity Index [CDAI; ≤2.8] and Boolean remission [28-joint tender joint count ≤1 and 28-joint swollen joint count ≤1 and patient global assessment of disease activity [0-10 cm]≤1 and high-sensitivity CRP≤1 mg/dL]), American College of Rheumatology (ACR) responses and Major Clinical Response (ACR 70 response for 6 months at any time period) in each arm.
Co-primary endpoints were tested in hierarchical fashion. […] All patients who discontinued prior to completing the treatment or withdrawal period were imputed as non-responders for the Month 12 or 18 analyses.
Endpoints of Disease Activity Score (DAS)-defined remission, SDAI remission, CDAI remission, Boolean remission, ACR 20/50/70 response and Major Clinical Response over time were summarized using descriptive statistics (with 95% confidence intervals at each time point).
For each treatment arm, a post hoc analysis was performed of mean baseline characteristics for patients who achieved DAS-defined remission at only Month 12 and at both Months 12 and 18, and of the proportions of patients who achieved DAS-defined remission based on these characteristics. An analysis of the overall treatment effect in mean change from baseline in DAS28 (CRP) (including data up to Month 12 of the treatment period) was performed for each treatment arm. Overall treatment effect and treatment differences between the three arms were obtained using a longitudinal repeated measures model including fixed categorical effects of treatment, months, and prior corticosteroid use as well as the continuous fixed covariate of baseline value. An unstructured covariance matrix was used to represent the correlation of the repeated measures within each subject.

[2] = test system: patients with early RA; test: AVERT trial: HAQ-DI response (≥0.3 points reduction from baseline); type: in vivo, human; settings: Month 12
[3] = treatment period, compared subgroups not stated

CN(Cc1cnc2nc(N)nc(N)c2n1)c1ccc(C(=O)N[C@@H](CCC(=O)O)C(=O)O)cc1 [MTX, methotrexate]
proportion of patients in DAS-defined remission (DAS28 [CRP]<2.6) at Month 12 ([1]; Month 12 of treatment period, patients with baseline DAS28 (CRP), discontinuations imputed as non-responders): 45.2%
proportion of patients in DAS-defined remission (DAS28 [CRP]<2.6) at both Months 12 and 18 ([1]; after withdrawal of all RA therapy at Month 12, only patients with DAS28 (CRP) available at baseline): 7.8%
patients remaining in DAS-defined remission at Month 18 ([1]; of the patients who entered the withdrawal period in DAS-defined remission at Month 12): 16.9%
Proportion of Patients with DAS-defined Remission (DAS28 [CRP] < 2.6) at Both Months 12 and 18 ([1]; post hoc subgroup: baseline DAS28 (CRP) >Median (5.4)): 3/55 (5.5) %
Proportion of Patients with DAS-defined Remission (DAS28 [CRP] < 2.6) at Both Months 12 and 18 ([1]; post hoc subgroup: baseline DAS28 (CRP) Missing): 0/1 (0) %
Proportion of Patients with DAS-defined Remission (DAS28 [CRP] < 2.6) at Both Months 12 and 18 ([1]; post hoc subgroup: baseline DAS28 (CRP) ≤Median (5.4)): 6/60 (10.0) %
Proportion of Patients with DAS-defined Remission (DAS28 [CRP] < 2.6) at Both Months 12 and 18 ([1]; post hoc subgroup: baseline Erosion >Median (4.5)): 3/50 (6.0) %
Proportion of Patients with DAS-defined Remission (DAS28 [CRP] < 2.6) at Both Months 12 and 18 ([1]; post hoc subgroup: baseline Erosion >Q1 (1.5)-Q2 (4.5)): 2/23 (8.7) %
Proportion of Patients with DAS-defined Remission (DAS28 [CRP] < 2.6) at Both Months 12 and 18 ([1]; post hoc subgroup: baseline Erosion >Q2 (4.5)-Q3 (8.5)): 2/23 (8.7) %
Proportion of Patients with DAS-defined Remission (DAS28 [CRP] < 2.6) at Both Months 12 and 18 ([1]; post hoc subgroup: baseline Erosion >Q3 (8.5)): 1/27 (3.7) %
Proportion of Patients with DAS-defined Remission (DAS28 [CRP] < 2.6) at Both Months 12 and 18 ([1]; post hoc subgroup: baseline Erosion Missing): 2/13 (15.4) %
Proportion of Patients with DAS-defined Remission (DAS28 [CRP] < 2.6) at Both Months 12 and 18 ([1]; post hoc subgroup: baseline Erosion ≤Median (4.5)): 4/53 (7.5) %
Proportion of Patients with DAS-defined Remission (DAS28 [CRP] < 2.6) at Both Months 12 and 18 ([1]; post hoc subgroup: baseline Erosion ≤Q1 (1.5)): 2/30 (6.7) %
Proportion of Patients with DAS-defined Remission (DAS28 [CRP] < 2.6) at Both Months 12 and 18 ([1]; post hoc subgroup: baseline HAQ-DI >Median (1.375)): 5/49 (10.2) %
Proportion of Patients with DAS-defined Remission (DAS28 [CRP] < 2.6) at Both Months 12 and 18 ([1]; post hoc subgroup: baseline HAQ-DI Missing): 0/11 (0) %
Proportion of Patients with DAS-defined Remission (DAS28 [CRP] < 2.6) at Both Months 12 and 18 ([1]; post hoc subgroup: baseline HAQ-DI ≤Median (1.375)): 4/56 (7.1) %
Proportion of Patients with DAS-defined Remission (DAS28 [CRP] < 2.6) at Both Months 12 and 18 ([1]; post hoc subgroup: baseline Osteitis >Median (0.5)): 3/49 (6.1) %
Proportion of Patients with DAS-defined Remission (DAS28 [CRP] < 2.6) at Both Months 12 and 18 ([1]; post hoc subgroup: baseline Osteitis >Q1 (0)-Q2 (0.5)): 0/5 (0) %
Proportion of Patients with DAS-defined Remission (DAS28 [CRP] < 2.6) at Both Months 12 and 18 ([1]; post hoc subgroup: baseline Osteitis >Q2 (0.5)-Q3 (5)): 2/26 (7.7) %
Proportion of Patients with DAS-defined Remission (DAS28 [CRP] < 2.6) at Both Months 12 and 18 ([1]; post hoc subgroup: baseline Osteitis >Q3 (5)): 1/23 (4.3) %
Proportion of Patients with DAS-defined Remission (DAS28 [CRP] < 2.6) at Both Months 12 and 18 ([1]; post hoc subgroup: baseline Osteitis Missing): 2/13 (15.4) %
Proportion of Patients with DAS-defined Remission (DAS28 [CRP] < 2.6) at Both Months 12 and 18 ([1]; post hoc subgroup: baseline Osteitis ≤Median (0.5)): 4/54 (7.4) %
Proportion of Patients with DAS-defined Remission (DAS28 [CRP] < 2.6) at Both Months 12 and 18 ([1]; post hoc subgroup: baseline Osteitis ≤Q1 (0)): 4/49 (8.2) %
Proportion of Patients with DAS-defined Remission (DAS28 [CRP] < 2.6) at Both Months 12 and 18 ([1]; post hoc subgroup: baseline Pain (100 mm VAS) >Median (62)): 2/45 (4.4) %
Proportion of Patients with DAS-defined Remission (DAS28 [CRP] < 2.6) at Both Months 12 and 18 ([1]; post hoc subgroup: baseline Pain (100 mm VAS) Missing): 0/11 (0.0) %
Proportion of Patients with DAS-defined Remission (DAS28 [CRP] < 2.6) at Both Months 12 and 18 ([1]; post hoc subgroup: baseline Pain (100 mm VAS) ≤Median (62)): 7/60 (11.7) %
Proportion of Patients with DAS-defined Remission (DAS28 [CRP] < 2.6) at Both Months 12 and 18 ([1]; post hoc subgroup: baseline Synovitis >Median (4.5)): 3/56 (5.4) %
Proportion of Patients with DAS-defined Remission (DAS28 [CRP] < 2.6) at Both Months 12 and 18 ([1]; post hoc subgroup: baseline Synovitis >Q1 (2)-Q2 (4.5)): 1/23 (4.3) %
Proportion of Patients with DAS-defined Remission (DAS28 [CRP] < 2.6) at Both Months 12 and 18 ([1]; post hoc subgroup: baseline Synovitis >Q2 (4.5)-Q3 (8.5)): 1/30 (3.3) %
Proportion of Patients with DAS-defined Remission (DAS28 [CRP] < 2.6) at Both Months 12 and 18 ([1]; post hoc subgroup: baseline Synovitis >Q3 (8.5)): 2/26 (7.7) %
Proportion of Patients with DAS-defined Remission (DAS28 [CRP] < 2.6) at Both Months 12 and 18 ([1]; post hoc subgroup: baseline Synovitis Missing): 2/13 (15.4) %
Proportion of Patients with DAS-defined Remission (DAS28 [CRP] < 2.6) at Both Months 12 and 18 ([1]; post hoc subgroup: baseline Synovitis ≤Median (4.5)): 4/47 (8.5) %
Proportion of Patients with DAS-defined Remission (DAS28 [CRP] < 2.6) at Both Months 12 and 18 ([1]; post hoc subgroup: baseline Synovitis ≤Q1 (2)): 3/24 (12.5) %
Proportion of Patients with DAS-defined Remission (DAS28 [CRP] < 2.6) at Both Months 12 and 18 ([1]; post hoc subgroup: symptom duration >6 Months): 2/39 (5.1) %
Proportion of Patients with DAS-defined Remission (DAS28 [CRP] < 2.6) at Both Months 12 and 18 ([1]; post hoc subgroup: symptom duration >Median (0.37 years)): 4/47 (8.5) %
Proportion of Patients with DAS-defined Remission (DAS28 [CRP] < 2.6) at Both Months 12 and 18 ([1]; post hoc subgroup: symptom duration ≤6 Months): 7/77 (9.1) %
Proportion of Patients with DAS-defined Remission (DAS28 [CRP] < 2.6) at Both Months 12 and 18 ([1]; post hoc subgroup: symptom duration ≤Median (0.37 years)): 5/69 (7.2) %
time with DAS28 (CRP) <2.6 during the treatment period (first value of 'x vs y') [1, 3]: 5.8 months
time with DAS28 (CRP) <2.6 during the treatment period (second value of 'x vs y') [1, 3]: 5.7 months
HAQ-DI Response (≥0.3), proportion of patients [2]: 44.0% and 51 (44.0) %

From patent US20200069772A1, “METHODS OF TREATING EARLY RHEUMATOID ARTHRITIS” (BRISTOL-MYERS SQUIBB COMPANY, priority 2014, published 2020)
